Results as given in US20220249413A1, “SWELL 1 MODULATORS FOR TREATMENT OF NON-ALCOHOLIC FATTY LIVER DISEASE, IMMUNE DEFICIENCIES, MALE INFERTILITY AND VASCULAR DISEASES” (priority 2019, published 2022).

Tests used:
[1] = tested on: insulin-AKT2-AS160 signaling; experiment: Insulin-stimulated pAKT2/pAS160 signaling in 3T3-F442A cells (Western blot); assay type: cell-based
Description: For Smod1 (DCPIB) mediated induction of SWELL1 and insulin signaling studies in 3T3-F442A preadipocytes, the cells were incubated with either vehicle (DMSO) or 10 μM Smod1 for 96 h. The cells were serum starved for 6 h (+DMSO or Smod1) and stimulated with 0, 3 and 10 nM insulin containing media (−DMSO or Smod1), as described above for 15 mins and the lysates were collected. In the case of 3T3-F442A adipocytes, the WT and KO cells were treated with either vehicle (DMSO) or 10 μM Smod1 following 7-11 days of differentiation for 96 h and then stimulated with 0 and 10 nM insulin for 15 min, as described above. Human embryonic kidney (HEK) cells were cultured and maintained in 90% DMEM (25 mM D-Glucose and 4 mM L-Glutamine) containing 10% fetal bovine serum (FBS) and 100 IU penicillin and 100 μg/ml streptomycin media.
Electrophysiology Patch-clamp recordings of β-cells and mature adipocytes were performed as described previously (Zhang et al., Nat Cell Biol, 19, 504-517, 2017; Kang et al., Nature Communications, 9, 367, 2018). 3T3-F442A WT and KO preadipocytes were prepared as described in the Cell culture section above. For SWELL1 overexpression recordings, preadipocytes were first transduced with Ad5-CAG-LoxP-stop-LoxP-3× Flag-SWELL1 (MOI 12) in 2% FBS culture medium for two days and then overexpression induced by adding Ad5-CMV-Cre-wt-IRES-eGFP (MOI 10-12) in 2% FBS culture medium for two more days and changed to 10% FBS containing culture media and were selected based on GFP expression (˜2-3 days). For 3-cell recordings, islets were transduced with Ad-RIP2-GFP and then dispersed after 48-72 hours for patch-clamp experiments. GFP+ cells marked […] selected for patch-clamp recordings. Recordings were measured using Axopatch 200B amplifier paired to a Digidata 1550 digitizer using pClamp 10.4 software. The extracellular buffer composition for hypotonic stimulation contains 90 mM NaCl, 2 mM CsCl, 1 mM MgCl2, 1 mM CaCl2), 10 mM HEPES, 10 mM Mannitol, pH 7.4 with NaOH (210 mOsm/kg). […] The images were further analyzed for band intensities using ImageJ software. […]

[2] = Traced hyperinsulinemic euglycemic clamp in KKA^y mice; assay type: in vivo, mouse

## CCCCC1(C2CCCC2)Cc2cc(OCCCC(=O)O)c(Cl)c(Cl)c2C1=O (stereo not shown) [Smod1, 4-[(2-Butyl-6,7-dichloro-2-cyclopentyl-2,3-dihydro-1-oxo-1H-inden-5-yl)oxy]butanoic acid]
[1]; SWELL1 KO 3T3-F442A adipocytes
  effects on insulin-AKT2-AS160 signaling in SWELL1 KO: absent
[1]; WT 3T3-F442A adipocytes, 10 μM for 96 h
  insulin-stimulated pAS160: enhanced
[1]; WT 3T3-F442A preadipocytes/adipocytes, 10 μM for 96 h
  insulin-stimulated pAKT2: enhanced
[2]; KKA^y mice, 5 mg/kg for 4 days
  glucose-infusion rate (GIR) to maintain euglycemia: 33.58 ± 3.4 mg/kg/min
[2]; KKA^y mice, baseline (basal)
  reduction of hepatic glucose production (Ra): ~1.6 fold
[2]; KKA^y mice, during glucose/insulin infusion (clamp)
  suppression of hepatic glucose production (Ra): 4.8 fold
[2]; brown fat, skeletal muscle, KKA^y mice
  enhancement of insulin stimulated 2-DG uptake: not in brown fat, or skeletal muscle
[2]; inguinal white adipose tissue (iWAT), KKA^y mice
  insulin stimulated 2-DG uptake: 7.0 ± 0.78 nmol/min/g
[2]; liver, adipose and skeletal muscle
  glucose-incorporation into glycogen: markedly increased
[2]; myocardium (Heart), KKA^y mice
  insulin stimulated 2-DG uptake: 451.3 ± 24.63 nmol/min/g
